Experimental data: PubChem BioAssay (NCI)
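48-hour exposure; five concentrations; linearly interpolated endpoints. Here, GI50 denotes the concentration required for 50% inhibition of growth. TGI: total growth inhibition.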

Assays:
Test in all cases: NCI tumour cell line growth inhibition, 48 h
EKVX NSCLC = system: EKVX NSCLC
SF-295 CNS = system: SF-295 CNS
NCI-H522 lung = system: NCI-H522 lung
CAKI-1 renal = system: CAKI-1 renal
IGROV1 ovarian = system: IGROV1 ovarian
SNB-75 CNS = system: SNB-75 CNS
HS 578T breast = system: HS 578T breast
DU-145 prostate = system: DU-145 prostate
RPMI-8226 leukemia = system: RPMI-8226 leukemia
MDA-MB-231 breast = system: MDA-MB-231 breast
NCI/ADR-RES ovarian = system: NCI/ADR-RES ovarian

`O=C1C(=O)c2ccccc2C(O)=C1CN(CCCl)CCCl` gave a TGI (EKVX NSCLC) of over 100 µM, a TGI (SF-295 CNS) of over 100 µM and a TGI (NCI-H522 lung) of over 100 µM. The TGI (CAKI-1 renal) was over 100 µM, the TGI (IGROV1 ovarian) was 77.9 µM and the TGI (SNB-75 CNS) was over 100 µM.

Molecule `NC(CCP(=O)(O)CCC1C=CC=CC1)C(=O)O` (stereo unspecified) has a TGI (EKVX NSCLC) of over 100 µM, a TGI (HS 578T breast) of over 100 µM and a TGI (DU-145 prostate) of over 100 µM. The TGI (RPMI-8226 leukemia) was over 100 µM, the TGI (MDA-MB-231 breast) was over 100 µM and the TGI (NCI/ADR-RES ovarian) was over 100 µM. It also gave a TGI (SF-295 CNS) of over 100 µM, a TGI (NCI-H522 lung) of 55.4 µM and a TGI (CAKI-1 renal) of over 100 µM. The TGI (IGROV1 ovarian) was over 100 µM and the TGI (SNB-75 CNS) was over 100 µM.

For `Nc1ccc2c3c(n(CCCCl)c(=O)c2c1)-c1cc2c(cc1C3=O)OCO2`, the GI50 (RPMI-8226 leukemia) was over 100000 nM, the TGI (RPMI-8226 leukemia) was over 100 µM and the GI50 (MDA-MB-231 breast) was 60.1 µM. The TGI (MDA-MB-231 breast) was over 100 µM, the GI50 (NCI/ADR-RES ovarian) was over 100000 nM and the TGI (NCI/ADR-RES ovarian) was over 100 µM. For the same molecule, the GI50 (SF-295 CNS) was 349 nM, the TGI (SF-295 CNS) was over 100 µM and the GI50 (CAKI-1 renal) was 1030 nM. It also gave a TGI (CAKI-1 renal) of over 100 µM, a GI50 (IGROV1 ovarian) of 177 nM and a TGI (IGROV1 ovarian) of over 100 µM. The GI50 (SNB-75 CNS) was over 100000 nM and the TGI (SNB-75 CNS) was over 100 µM.

Work on `Cc1cccc2[s+]snc12` yielded a TGI (EKVX NSCLC) of over 77.4 µM, a TGI (RPMI-8226 leukemia) of over 81.4 µM and a TGI (SF-295 CNS) of over 100 µM. The TGI (NCI-H522 lung) was 35.9 µM, the TGI (CAKI-1 renal) was over 100 µM and the TGI (IGROV1 ovarian) was over 100 µM. For the same molecule, the TGI (SNB-75 CNS) was over 100 µM.

In the case of `COc1cc(C2=C(C#N)C(N)OC3=C2COc2ccccc23)cc(OC)c1OC` (stereo unspecified), the TGI (EKVX NSCLC) was 43.7 µM, the TGI (DU-145 prostate) was 25.8 µM and the TGI (RPMI-8226 leukemia) was over 100 µM. The TGI (MDA-MB-231 breast) was 43.8 µM, the TGI (NCI/ADR-RES ovarian) was over 100 µM and the TGI (IGROV1 ovarian) was over 100 µM.

In the case of `COC1CC(OC2CCC3(C)C(CCC45CCC(C6=CC(=O)OC6)C(C)(CCC43)C5=O)C2)OC(C)C1O` (stereo unspecified), the TGI (EKVX NSCLC) was over 100 µM, the TGI (HS 578T breast) was over 100 µM and the TGI (DU-145 prostate) was 29.3 µM. For the same molecule, the TGI (MDA-MB-231 breast) was over 100 µM, the TGI (NCI/ADR-RES ovarian) was over 100 µM and the TGI (SF-295 CNS) was over 100 µM. It also gave a TGI (NCI-H522 lung) of 82.1 µM, a TGI (CAKI-1 renal) of 80.1 µM and a TGI (IGROV1 ovarian) of over 100 µM. It also gave a TGI (SNB-75 CNS) of over 100 µM.

Molecule `O=[N+]([O-])c1ccc(Nc2nc3ccccc3s2)cc1` has a TGI (EKVX NSCLC) of 40.4 µM, a TGI (HS 578T breast) of over 100 µM and a TGI (DU-145 prostate) of over 100 µM. For the same molecule, the TGI (MDA-MB-231 breast) was 40.2 µM, the TGI (NCI/ADR-RES ovarian) was over 100 µM and the TGI (SF-295 CNS) was over 100 µM. The TGI (NCI-H522 lung) was 35.9 µM, the TGI (CAKI-1 renal) was over 100 µM and the TGI (IGROV1 ovarian) was 21.2 µM.

`N=C(N)c1csc([C@@H]2O[C@H](CO)[C@@H](O)[C@H]2O)n1` was tested, and the TGI (EKVX NSCLC) was over 100 µM, the TGI (RPMI-8226 leukemia) was over 100 µM and the TGI (SF-295 CNS) was over 100 µM. It also gave a TGI (CAKI-1 renal) of over 100 µM, a TGI (IGROV1 ovarian) of over 100 µM and a TGI (SNB-75 CNS) of over 100 µM.

`CCC(=O)NC(Nc1ccc(O)cc1)(C(F)(F)F)C(F)(F)F` showed a TGI (EKVX NSCLC) of over 100 µM, a TGI (HS 578T breast) of over 100 µM and a TGI (DU-145 prostate) of over 100 µM. It also gave a TGI (RPMI-8226 leukemia) of over 100 µM, a TGI (MDA-MB-231 breast) of over 100 µM and a TGI (NCI-H522 lung) of 66.6 µM. It also gave a TGI (SNB-75 CNS) of over 100 µM.

With `c1cn2cc(-c3ccc4ncn(C5CCCCC5)c4c3)nc(-c3ccc4c(c3)ncn4C3CCCCC3)c2n1` the GI50 (HS 578T breast) was 2390 nM, the TGI (HS 578T breast) was 6.74 µM and the GI50 (RPMI-8226 leukemia) was 806 nM. The TGI (RPMI-8226 leukemia) was 3.99 µM, the GI50 (MDA-MB-231 breast) was 1.29 µM and the TGI (MDA-MB-231 breast) was 3.08 µM. It also gave a GI50 (NCI/ADR-RES ovarian) of 2340 nM, a TGI (NCI/ADR-RES ovarian) of 7.33 µM and a GI50 (SF-295 CNS) of 1710 nM. It also gave a TGI (SF-295 CNS) of 3.15 µM, a GI50 (CAKI-1 renal) of 1460 nM and a TGI (CAKI-1 renal) of 2.95 µM. It also gave a GI50 (SNB-75 CNS) of 1390 nM and a TGI (SNB-75 CNS) of 3.07 µM.

`CC(C)(C)[Si](C)(C)OCC1CCC(n2cnc3c(N)ncnc32)O1` (stereo unspecified) showed a TGI (HS 578T breast) of over 100 µM, a TGI (DU-145 prostate) of over 100 µM and a TGI (RPMI-8226 leukemia) of over 100 µM. For the same molecule, the TGI (MDA-MB-231 breast) was over 100 µM, the TGI (SF-295 CNS) was over 100 µM and the TGI (CAKI-1 renal) was over 100 µM. For the same molecule, the TGI (IGROV1 ovarian) was over 100 µM and the TGI (SNB-75 CNS) was over 100 µM.

`NNc1nc2ccccc2s1` showed a TGI (EKVX NSCLC) of over 100 µM, a TGI (HS 578T breast) of over 100 µM and a TGI (DU-145 prostate) of over 100 µM. For the same molecule, the TGI (RPMI-8226 leukemia) was over 100 µM, the TGI (MDA-MB-231 breast) was over 100 µM and the TGI (NCI/ADR-RES ovarian) was over 100 µM. For the same molecule, the TGI (NCI-H522 lung) was over 100 µM, the TGI (CAKI-1 renal) was over 100 µM and the TGI (IGROV1 ovarian) was over 100 µM. It also gave a TGI (SNB-75 CNS) of over 100 µM.

`CC12CCC(C(=O)N3CC=CCC3)(OC1=O)C2(C)C` (stereo unspecified) was tested, and the TGI (EKVX NSCLC) was over 100 µM, the TGI (RPMI-8226 leukemia) was over 100 µM and the TGI (NCI/ADR-RES ovarian) was over 100 µM. The TGI (SF-295 CNS) was over 100 µM, the TGI (NCI-H522 lung) was over 100 µM and the TGI (CAKI-1 renal) was over 100 µM. The TGI (IGROV1 ovarian) was over 100 µM and the TGI (SNB-75 CNS) was over 100 µM.
